# Test results: patent US20030229113A1, “Keratinocyte growth inhibitors and hydroxamic acid derivatives” (priority 2003, published 2003)
# Like-named read-outs stand apart in the source and are kept apart here.
# Test system: solubilizing enzyme of HB-EGF
# Test: Inhibition of TPA-stimulated release of HB-EGF from HT-1080 transfectant expressing HB-EGF/alkaline phosphatase fusion protein
# Format: cell-based, human
# Settings: HT-1080 HB-EGF-AP transfectant, TPA 60 nM for 60 min, AP activity in conditioned medium (OD405)
# Description: Human fibrosarcoma HT-1080 stable transfectant expressing fusion protein of HB-EGF and human placental alkaline phosphatase (AP) were used for following experiments.
# The cultured transfectant was treated with Trypsin-EDTA solution, and suspended in Minimum Essential Medium (without phenol red; supplemented with 10% heat-inactivated fetal calf serum; MEM) at the concentration of 1×10^5 cells/ml. Each 0.2 ml of the cell suspension was dispensed into individual wells of 96 well microplate, and incubated overnight in the CO2 incubator (37° C.). After the incubation, the conditioned medium was removed, and the wells were washed once with 0.2 ml of phosphate buffered saline. The cells were treated with 0.1 ml of compound solution [compound solutions in dimethylsulfoxide (DMSO) were diluted 100 times with MEM] for 30 min at 37° C. Then the compound solutions were removed, and cells were treated with 0.2 ml of TPA solution (120 μM) of stock solution was diluted to 60 nM with MEM) containing same concentration of the compound for 60 min at 37° C. The cells treated same procedure without compound were used as control.
# After these treatments, each 0.1 ml of conditioned medium was transferred to individual wells of new 96 well microplate and incubated at 65° C. for 10 min to inactivate endogenous alkaline phosphatase. One hundred microliter of substrate solution (1 mg/ml of p-nitrophenyl phosphate in 0.01% magnesium chloride/1 M diethanolamine) for AP was added to each well and incubated for 120 min at room temperature in the dark. The OD405 of each well was measured with microplate reader. The IC50 values of the compounds were calculated from the concentration-inhibition curves.
Compound,IC50 (read-out: IC50) [nM],IC50 [nM]
"COc1ccc(S(=O)(=O)N2Cc3nccnc3CC2C(=O)NO)cc1 (racemic) [the compound(1), (±)-N-Hydroxy-6-(4-methoxybenzenesulfonyl)-5,6,7,8-tetrahydropyrido[3,4-b]pyrazine-7-carboxamide]",800,–
"O=C(NO)C1Cc2nccnc2CN1S(=O)(=O)c1ccc(Oc2ccncc2)cc1 (racemic) [the compound(2), (±)-N-Hydroxy-6-[4-(pyridine-4-yloxy)benzenesulfonyl]-5,6,7,8-tetrahydropyrido[3,4-b]pyrazine-7-carboxamide]",–,990
"O=C(NO)C1Cc2nccnc2CN1S(=O)(=O)c1ccc(Oc2ccccc2)cc1 (racemic) [the compound(3), (±)-N-Hydroxy-6-(4-phenoxybenzenesulfonyl)-5,6,7,8-tetrahydropyrido[3,4-b]pyrazine-7-carboxamide]",1000,–
"COCCCOc1ccc(S(=O)(=O)N2Cc3nccnc3CC2C(=O)NO)cc1 (racemic) [the compound(4), (±)-N-Hydroxy-6-[4-(3-methoxypropoxy)benzenesulfonyl]-5,6,7,8-tetrahydropyrido[3,4-b]pyrazine-7-carboxamide]",240,–
"O=C(NO)C1Cc2nccnc2CN1S(=O)(=O)c1ccc(Oc2cnccn2)cc1 (racemic) [the compound(5), (±)-N-Hydroxy-6-[4-(pyrazine-2-yloxy)benzenesulfonyl]-5,6,7,8-tetrahydropyrido[3,4-b]pyrazine-7-carboxamide]",–,900
"Nc1ccc(Oc2ccc(S(=O)(=O)N3Cc4nccnc4CC3C(=O)NO)cc2)cc1 (racemic) [the compound(6), (±)-N-Hydroxy-6-[4-(4-aminophenoxy)benzenesulfonyl]-5,6,7,8-tetrahydropyrido[3,4-b]pyrazine-7-carboxamide]",1100,–
"CCOCCOc1ccc(S(=O)(=O)N2Cc3nccnc3CC2C(=O)NO)cc1 (racemic) [the compound(7), (±)-N-Hydroxy-6-[4-(2-ethoxyethoxy)benzenesulfonyl]-5,6,7,8-tetrahydropyrido[3,4-b]pyrazine-7-carboxamide]",260,–
"COCCOc1ccc(S(=O)(=O)N2Cc3nccnc3CC2C(=O)NO)cc1 (racemic) [the compound(8), (±)-N-Hydroxy-6-[4-(2-methoxyethoxy)benzenesulfonyl]-5,6,7,8-tetrahydropyrido[3,4-b]pyrazine-7-carboxamide]",840,–
"CCCCCOc1ccc(S(=O)(=O)N2Cc3nccnc3CC2C(=O)NO)cc1 (racemic) [the compound(9), (±)-N-Hydroxy-6-(4-pentyloxybenzenesulfonyl)-5,6,7,8-tetrahydropyrido[3,4-b]pyrazine-7-carboxamide]",460,–
"CSCCCOc1ccc(S(=O)(=O)N2Cc3nccnc3CC2C(=O)NO)cc1 (racemic) [the compound(10), (±)-N-Hydroxy-6-[4-(3-methylthiopropoxy)benzenesulfonyl]-5,6,7,8-tetrahydropyrido[3,4-b]pyrazine-7-carboxamide]",–,340
"COCCCCOc1ccc(S(=O)(=O)N2Cc3nccnc3CC2C(=O)NO)cc1 (racemic) [the compound(11), (±)-N-Hydroxy-6-[4-(methoxybutoxy)benzenesulfonyl]-5,6,7,8-tetrahydropyrido[3,4-b]pyrazine-7-carboxamide]",1400,–
"CCOCCCOc1ccc(S(=O)(=O)N2Cc3nccnc3CC2C(=O)NO)cc1 (racemic) [the compound(12), (±)-N-Hydroxy-6-[4-(ethoxypropoxy)benzenesulfonyl]-5,6,7,8-tetrahydropyrido[3,4-b]pyrazine-7-carboxamide]",160,–
"O=C(NO)C1Cc2nccnc2CN1S(=O)(=O)c1ccc(OCCF)cc1 (single isomer, unassigned; (+)) [the compound(18), (+)-N-Hydroxy-6-[4-(2-fluoroethoxy)benzenesulfonyl]-5,6,7,8-tetrahydropyrido[3,4-b]pyrazine-7-carboxamide]",160,–
"CC(C)COc1ccc(S(=O)(=O)N2Cc3nccnc3CC2C(=O)NO)cc1 (single isomer, unassigned; (+)) [the compound(22), (+)-N-Hydroxy-6-(4-isobuthoxybenzenesulfonyl)-5,6,7,8-tetrahydropyrido[3,4-b]pyrazine-7-carboxamide]",3600,–
"CCOCCCOc1ccc(S(=O)(=O)N2Cc3nccnc3CC2C(=O)NO)cc1 (single isomer, unassigned; (+)) [the compound(23), (+)-N-Hydroxy-6-[4-(3-ethoxypropoxy)benzenesulfonyl]-5,6,7,8-tetrahydropyrido[3,4-b]pyrazine-7-carboxamide]",92,–
"O=C(NO)C1Cc2nccnc2CN1S(=O)(=O)c1ccc(OCCCBr)cc1 (single isomer, unassigned; (+)) [the compound(24), (+)-N-Hydroxy-6-[4-(3-bromopropoxy)benzenesulfonyl]-5,6,7,8-tetrahydropyrido[3,4-b]pyrazine-7-carboxamide]",600,–
"CCCCOCCCOc1ccc(S(=O)(=O)N2Cc3nccnc3CC2C(=O)NO)cc1 (single isomer, unassigned; (+)) [the compound(25), (+)-N-Hydroxy-6-[4-(3-buthoxypropoxy)benzenesulfonyl]-5,6,7,8-tetrahydropyrido[3,4-b]pyrazine-7-carboxamide]",260,–
"CC(C)COCCCOc1ccc(S(=O)(=O)N2Cc3nccnc3CC2C(=O)NO)cc1 (single isomer, unassigned; (+)) [the compound(26), (+)-N-Hydroxy-6-[4-(3-isobuthoxypropoxy)benzenesulfonyl]-5,6,7,8-tetrahydropyrido[3,4-b]pyrazine-7-carboxamide]",560,–
"CC(C)(C)C(=O)Oc1ccc(S(=O)(=O)N2Cc3nccnc3CC2C(=O)NO)cc1 (single isomer, unassigned; (+)) [the compound(28), (+)-N-Hydroxy-6-(4-pivaloyloxybenzenesulfonyl)-5,6,7,8-tetrahydropyrido[3,4-b]pyrazine-7-carboxamide]",2800,–
"N#CCCOc1ccc(S(=O)(=O)N2Cc3nccnc3CC2C(=O)NO)cc1 (single isomer, unassigned; (+)) [the compound(29), (+)-N-Hydroxy-6-[4-(2-cyanoethoxy)benzenesulfonyl]-5,6,7,8-tetrahydropyrido[3,4-b]pyrazine-7-carboxamide]",200,–
"CCOC(=O)COc1ccc(S(=O)(=O)N2Cc3nccnc3CC2C(=O)NO)cc1 (single isomer, unassigned; (+)) [the compound(30), (+)-N-Hydroxy-6-(4-ethoxycarbonylmethoxy-benzenesulfonyl)-5,6,7,8-tetrahydropyrido[3,4-b]pyrazine-7-carboxamide]",1000,–
"Cc1ccc(S(=O)(=O)N2Cc3nccnc3CC2C(=O)NO)cc1 (single isomer, unassigned; (+)) [the compound(31), (+)-N-Hydroxy-6-(4-methylbenzenesulfonyl)-5,6,7,8-tetrahydropyrido[3,4-b]pyrazine-7-carboxamide]",2700,–
"CCOC(=O)CCCOc1ccc(S(=O)(=O)N2Cc3nccnc3CC2C(=O)NO)cc1 (single isomer, unassigned; (+)) [the compound(32), (+)-N-Hydroxy-6-[4-(3-ethoxycarbonylpropoxy)benzenesulfonyl]-5,6,7,8-tetrahydropyrido[3,4-b]pyrazine-7-carboxamide]",1100,–
